Source: patent US6617140B2
Entries after “also recorded” stand apart in the source; their conditions may differ. Where two headings read alike, the source gives them in different places.

Tests used:
[1] = target: L-proline-4-hydroxylase (Dactylosporangium salmoneum, UniProt A0ABP5TRQ3); assay: Substrate omission and addition tests on the enzyme reaction (indispensable compounds, promoters, inhibitors); assay type: biochemical, Dactylosporangium sp. RH1; conditions: for Relative Activity: 80 mM TES pH 7.5, 30° C., 15 minutes, standard reaction mixture = 100; for activity of the enzyme in the presence of the ion, of the original activity: ion at 1 mM
Method: The reaction was initiated by addition of the enzyme and continued for 15 minutes at 30° C. The reaction was stopped by heating the reaction mixture at 100° C. for 2 minutes. […] The reaction was stopped by adding 30 μl of 1 N HCl to the reaction mixture, and the precipitates formed were removed therefrom by centrifugation and filtration.
The HPLC for the determination was carried out under the following conditions: […]

[2] = substrate: O=C(O)CCC(=O)C(=O)O; assay: purified protein, by the assay type; conditions: other: 80 mM MES buffer (pH 6.5), 4 mM L-ascorbic acid, 2 mM ferrous sulfate
[3] = substrate: O=C(O)[C@@H]1CCCN1; assay: purified protein, by the assay type; conditions: other: 80 mM MES buffer (pH 6.5), 4 mM L-ascorbic acid, 2 mM ferrous sulfate

O=C(O)[C@@H]1CCCN1 [L-proline]
need of the component for the enzyme reaction (in words) [1]: indispensable
Relative Activity ([1]; component not added (omitted)): 0

O=C1O[C@H]([C@@H](O)CO)C(O)=C1O [L-ascorbic acid]
promotion of the enzyme activity/reaction (in words) [1]: promotes the reaction
Relative Activity ([1]; component not added (omitted)): 51
promotion of the enzyme activity/reaction (in words) ([1]; listed as Ascorbic acid): promotes the activity of the enzyme
promotion of the enzyme activity/reaction (in words) ([1]; listed as L-Ascorbic acid): accelerates the activity of the enzyme

Catalase
Relative Activity ([1]; component not added (omitted)): 93

O=C(O)CN(CCN(CC(=O)O)CC(=O)O)CC(=O)O [EDTA, ethylenediaminetetraacetic acid]
inhibition of the enzyme activity/reaction (in words) [1]: inhibit the reaction
activity of the enzyme in the presence of EDTA ([1]; 5 mM EDTA): no activity of the enzyme was detected
Relative Activity ([1]; component added at 5 mM): 0
inhibition of the enzyme activity/reaction (in words) ([1]; listed as ethylenediaminetetraacetic acid): inhibited

[Zn+2] [Zn^++]
inhibition of the enzyme activity/reaction (in words) [1]: inhibit the reaction; also recorded: inhibited
Relative Activity ([1]; component added at 1 mM): 6
activity of the enzyme in the presence of the ion, of the original activity [1]: 6%

O=C(O)CCC(=O)C(=O)O [2-ketoglutaric acid]
need of the component for the enzyme reaction (in words) [1]: indispensable
Relative Activity ([1]; component not added (omitted)): 0

[Cu+2] [Cu^++]
inhibition of the enzyme activity/reaction (in words) [1]: inhibit the reaction; also recorded: inhibited
Relative Activity ([1]; component added at 1 mM): 13
activity of the enzyme in the presence of the ion, of the original activity [1]: 13%

[Fe+2] [Fe^++]
need of the component for the enzyme reaction (in words) [1]: indispensable
Relative Activity ([1]; component not added (omitted)): 0

B1: L-proline-4-hydroxylase (Dactylosporangium salmoneum) (protein)
chain: MLTPTELKQYREAGYLLIEDGLGPREVDCLRRAAAALYAQDSPDRTLEKDGRTVRAVHGCHRRDPVCRDLVRHPRLLGPAMQILSGDVYVHQFKINAKAPMTGDVWPWHQDYIFWAREDGMDRPHVVNVAVLLDEATHLNGPLLFVPGTHELGLIDVERRAPAGDGDAQWLPQLSADLDYAIDADLLARLTAGRGIESATGPAGSILLFDSRIVHGSGTNMSPHPRGVVLVTYNRTDNALPAQAAPRPEFLAARDATPLVPLPAGFALAQPV
Km [2]: 550 µM
Km [3]: 270 µM
